Measurements reported in PMC11305846 (ALTEX, 2024).

Legend:
[1] = tested on: iPSC-CM; assay: Ca2+ flux phenotypic assay; details: for beat frequency from Ca2+ flux traces: 100 μM, 90 minutes after treatment, vehicle ~30 beats per minute
[2] = tested on: iPSC-Hep; assay: High-content imaging phenotypic assay in iPSC-derived hepatocytes, 48 h exposure; format: cell-based, human; details: 0.1-100 μM, benchmark 1 SD

O=S(=O)(O)CCC(F)(F)C(F)(F)C(F)(F)C(F)(F)C(F)(F)C(F)(F)C(F)(F)C(F)(F)F [8:2 FTS, 8:2 Fluorotelomer sulfonic acid]
negative chronotropy: effect that reached benchmark response (5% change) ([1]; 0.1-100 μM, 90 min): decreased peak frequency

O=C(O)C(F)(F)C(F)(F)C(F)(F)C(F)(F)C(F)(F)C(F)(F)C(F)(F)C(F)(F)C(F)(F)C(F)(F)C(F)(F)C(F)(F)F [PFTiDA, Perfluorotridecanoic acid]
beat frequency from Ca2+ flux traces [1]: 12 beats per minute | negative chronotropy: effect that reached benchmark response (5% change) ([1]; 0.1-100 μM, 90 min): decreased peak frequency

O=C(O)C(F)(F)C(F)(F)OC(F)(F)F [PFMPA, Perfluoro-3-methoxypropanoic acid]
negative chronotropy: effect that reached benchmark response (5% change) ([1]; 0.1-100 μM, 90 min): decreased peak frequency

O=S(=O)([O-])C(F)(F)C(F)(F)C(F)(F)C(F)(F)C(F)(F)C(F)(F)C(F)(F)C(F)(F)C(F)(F)C(F)(F)F.[Na+] [PFDS-Na, Sodium perfluorodecanesulfonate]
QT prolongation: effect that reached benchmark response (5% change) ([1]; 0.1-100 μM, 90 min): QT prolongation | negative chronotropy: effect that reached benchmark response (5% change) ([1]; 0.1-100 μM, 90 min): decreased peak frequency

O=C(O)C(F)(F)C(F)(F)C(F)(F)C(F)(F)C(F)(F)C(F)(F)C(F)(F)F [PFOA, Perfluorooctanoic acid]
negative chronotropy: effect that reached benchmark response (5% change) ([1]; 0.1-100 μM, 90 min): decreased peak frequency | concentration-response phenotypic effect on cell mean area [2]: increased mean cell area

N.O=C(O)C(F)(F)C(F)(F)C(F)(F)C(F)(F)C(F)(F)C(F)(F)C(F)(F)F [NH4PFOA, Ammonium perfluorooctanoate]
negative chronotropy: effect that reached benchmark response (5% change) ([1]; 0.1-100 μM, 90 min): decreased peak frequency

O=C(O)C(F)(F)C(F)(F)C(F)(F)C(F)(F)C(F)(F)C(F)(F)C(F)(F)C(F)(F)C(F)(F)C(F)(F)C(F)(F)C(F)(F)C(F)(F)F [PFTeDA, Perfluorotetradecanoic acid]
negative chronotropy: effect that reached benchmark response (5% change) ([1]; 0.1-100 μM, 90 min): decreased peak frequency

O=S(=O)(O)C(F)(F)C(F)(F)C(F)(F)C(F)(F)F [PFBS, Perfluorobutanesulfonic acid]
beat frequency from Ca2+ flux traces [1]: 24 beats per minute | negative chronotropy: effect that reached benchmark response (5% change) ([1]; 0.1-100 μM, 90 min): decreased peak frequency
